Where two headings read alike, the source gives them in different places.
Test: Pharmacokinetics of rivaroxaban in rats after avitinib or gefitinib pretreatment
Assay type: in vivo, Sprague–Dawley (SD) rats
Conditions: male, Sprague-Dawley, rat, plasma, oral
Experimental: Eighteen male Sprague–Dawley (SD) rats weighing 300 ± 20 g were provided by the Experimental Animal Center of Wenzhou Medical University (Wenzhou, China) and kept under controlled conditions at a temperature of 23 ± 2 °C, relative humidity of 50 ± 10%, and 12 h light–dark cycle. Eighteen male SD rats were randomly assigned to three groups: avitinib, gefitinib, and control, with six rats per group. Prior to the experiment, the rats were not administered any other medications and fasted for 12 h. The experimental procedures and protocols adhered to Animal Ethics standards and were approved by the Animal Care and Use Committee of Wenzhou Medical University (approval no. wydw2019–650). All rats were anesthetized with sodium pentobarbital (40mg/kg, i.p) to relieve pain. The rats were killed through cervical dislocation.
Prior to the experiment in vivo, the six rats in the avitinib group were administered 30 mg/kg avitinib and 0.5% sodium carboxymethyl cellulose (CMC-Na) solution by gavage daily for 7 d. […] The supernatant was collected and stored at −80 °C. After thawing, 50 μL of plasma was extracted; 100 μL of acetonitrile solution containing midazolam (200 ng/mL) was then added to induce protein precipitation. After vortexing for 30 s and centrifuging at 13,000 rpm for 5 min, the […].
All assays were performed in triplicate, and the results are expressed as mean ± standard deviation. DAS software v. […] SPSS v. 25.0 (IBM, NY, USA) was used for data processing. Student’s t-tests were used to detect differences between groups. Differences with p < 0.05 were considered statistically significant.

concentration at 6 h (10 mg/kg, rivaroxaban ng/ml mean, control (rivaroxaban alone) group, mean of rats 13-18, time 6): 141 ng/mL
concentration at 8 h (10 mg/kg, rivaroxaban ng/ml mean, control (rivaroxaban alone) group, mean of rats 13-18, time 8): 93 ng/mL
concentration at 12 h (10 mg/kg, rivaroxaban ng/ml mean, control (rivaroxaban alone) group, mean of rats 13-18, time 12): 76.8 ng/mL
concentration at 0.25 h (10 mg/kg, rivaroxaban ng/ml, 对照 (control, rivaroxaban alone) group, individual rats 13-18, time 0.25): 305 ng/mL
concentration at 0.5 h (10 mg/kg, rivaroxaban ng/ml, 对照 (control, rivaroxaban alone) group, individual rats 13-18, time 0.5): 434 ng/mL
concentration at 1 h (10 mg/kg, rivaroxaban ng/ml, 对照 (control, rivaroxaban alone) group, individual rats 13-18, time 1): 458 ng/mL
concentration at 4 h (10 mg/kg, rivaroxaban ng/ml, 对照 (control, rivaroxaban alone) group, individual rats 13-18, time 4): 190 ng/mL
concentration at 12 h (gefitinib group, Mean, read-out: C_last): 2070 ng/mL
concentration at 5 min (plasma concentration of rivaroxaban, 5 min, avitinib group, Mean): 284 ng/mL
concentration at 5 min (plasma concentration of rivaroxaban, 5 min, avitinib group, single rats No1-No6): 237 ng/mL
concentration at 5 min (plasma concentration of rivaroxaban, 5 min, gefitinib group, Mean): 626 ng/mL
concentration at 0.25 h (plasma concentration of rivaroxaban, 0.25 h, avitinib group, Mean): 588 ng/mL
concentration at 0.25 h (plasma concentration of rivaroxaban, 0.25 h, gefitinib group, Mean): 1740 ng/mL
concentration at 0.25 h (plasma concentration of rivaroxaban, 0.25 h, gefitinib group, single rats No1-No6): 1690 ng/mL
concentration at 0.5 h (plasma concentration of rivaroxaban, 0.5 h, avitinib group, Mean): 1090 ng/mL
concentration at 0.5 h (plasma concentration of rivaroxaban, 0.5 h, gefitinib group, Mean): 3670 ng/mL
concentration at 0.5 h (plasma concentration of rivaroxaban, 0.5 h, gefitinib group, single rats No1-No6): 4080 ng/mL
concentration at 1 h (plasma concentration of rivaroxaban, 1 h, avitinib group, Mean): 1730 ng/mL
concentration at 1 h (plasma concentration of rivaroxaban, 1 h, gefitinib group, Mean): 5580 ng/mL
concentration at 1 h (plasma concentration of rivaroxaban, 1 h, gefitinib group, single rats No1-No6): 6110 ng/mL
concentration at 2 h (plasma concentration of rivaroxaban, 2 h, avitinib group, Mean): 1650 ng/mL
concentration at 2 h (plasma concentration of rivaroxaban, 2 h, gefitinib group, Mean): 7180 ng/mL
concentration at 3 h (plasma concentration of rivaroxaban, 3 h, avitinib group, Mean): 1390 ng/mL
concentration at 3 h (plasma concentration of rivaroxaban, 3 h, gefitinib group, Mean): 7690 ng/mL
concentration at 3 h (plasma concentration of rivaroxaban, 3 h, gefitinib group, single rats No1-No6): 6480 ng/mL
concentration at 4 h (plasma concentration of rivaroxaban, 4 h, avitinib group, Mean): 1010 ng/mL
concentration at 4 h (plasma concentration of rivaroxaban, 4 h, gefitinib group, Mean): 7800 ng/mL
concentration at 4 h (plasma concentration of rivaroxaban, 4 h, gefitinib group, single rats No1-No6): 6780 ng/mL
concentration at 6 h (plasma concentration of rivaroxaban, 6 h, avitinib group, Mean): 538 ng/mL
concentration at 6 h (plasma concentration of rivaroxaban, 6 h, gefitinib group, Mean): 5500 ng/mL
concentration at 6 h (plasma concentration of rivaroxaban, 6 h, gefitinib group, single rats No1-No6): 5830 ng/mL
concentration at 8 h (plasma concentration of rivaroxaban, 8 h, avitinib group, Mean): 448 ng/mL
concentration at 8 h (plasma concentration of rivaroxaban, 8 h, gefitinib group, Mean): 3710 ng/mL
concentration at 8 h (plasma concentration of rivaroxaban, 8 h, gefitinib group, single rats No1-No6): 4960 ng/mL
concentration at 12 h (plasma concentration of rivaroxaban, 12 h, avitinib group, Mean): 80.9 ng/mL
concentration at 12 h (plasma concentration of rivaroxaban, 12 h, gefitinib group, Mean): 1640 ng/mL
concentration at 24 h (rivaroxaban ng/ml mean, 吉非替尼 (gefitinib) group, mean (four rats), time 24): 144 ng/mL
concentration at 5 min (rivaroxaban ng/ml mean, 吉非替尼 (gefitinib) group, mean of rats 7-12, time 0.0833): 626 ng/mL
concentration at 0.25 h (rivaroxaban ng/ml mean, 吉非替尼 (gefitinib) group, mean of rats 7-12, time 0.25): 1740 ng/mL
concentration at 0.5 h (rivaroxaban ng/ml mean, 吉非替尼 (gefitinib) group, mean of rats 7-12, time 0.5): 3670 ng/mL
concentration at 1 h (rivaroxaban ng/ml mean, 吉非替尼 (gefitinib) group, mean of rats 7-12, time 1): 5580 ng/mL
concentration at 2 h (rivaroxaban ng/ml mean, 吉非替尼 (gefitinib) group, mean of rats 7-12, time 2): 7180 ng/mL
concentration at 3 h (rivaroxaban ng/ml mean, 吉非替尼 (gefitinib) group, mean of rats 7-12, time 3): 7690 ng/mL
concentration at 4 h (rivaroxaban ng/ml mean, 吉非替尼 (gefitinib) group, mean of rats 7-12, time 4): 7800 ng/mL
concentration at 6 h (rivaroxaban ng/ml mean, 吉非替尼 (gefitinib) group, mean of rats 7-12, time 6): 5500 ng/mL
concentration at 8 h (rivaroxaban ng/ml mean, 吉非替尼 (gefitinib) group, mean of rats 7-12, time 8): 3710 ng/mL
Compound: O=C(NC[C@H]1CN(c2ccc(N3CCOCC3=O)cc2)C(=O)O1)c1ccc(Cl)s1 [rivaroxaban, Rivaroxaban]
